This passage reports IC50 results from paper PMC6540907, “The nuclear export inhibitor aminoratjadone is a potent effector in extracellular-targeted drug conjugates” (Chemical Science, 2019).

Common to all, as to format: cell-based, human
For one assay, the system named is KB-3.1 cancer cells. Description: Cell proliferation assay under folate free conditions (MTT). The note with it: KB-3.1, folate receptor-positive, read-out: Antiproliferative activity IC50 of folate-ratjadone conjugates. How it is done: Cell proliferation assay under folate free conditions
KB 3.1 (DSMZ ACC 158) cells were cultivated at 37 °C and 10 % CO2 in RMPI-medium without folic acid (Gibco) with 10% fetal calf serum (Gibco). 120 µL of suspended cells (100.000/mL) were seeded in wells of 96-well plates and after 24 h at 37 °C and 10 % CO2 the medium was removed, the cells were washed with PBS and RPMI-medium without folic acid (Gibco) + 10% dialyzed fetal calf serum (Sigma) were added to the cells, before after additional 24 h at 37°C and 10 % CO2 60 µL of serial dilutions of the test compound were given to cells. After 1, 2 and 5 days of incubation growth inhibition (IC50) was determined using an […]

Another assay concerns A-549. Description: cells. How it is done: (§1) Biological evaluation of the compounds […]
(§2) serial dilutions of the test compound were given to 120 µL of suspended cells (50.000/mL) in wells of 96-well plates. After 5 days of incubation growth inhibition (IC50) was determined using an MTT assay.9
(§3) Table S1:Medium conditions for different cell types.
(§4) Cell type Medium Additives
(§5) L-929 (DSMZ ACC 2) DME medium (high glucose) (Gibco) 10% fetal calf serum (Gibco) SKOV-3 DSMZ ATCC HTB Mc Coys-Medium (Gibco) 10% fetal calf serum (Gibco) […]
(§6) A549 (DSMZ ACC 107) DME medium (high glucose) (Gibco) 10% fetal calf serum (Gibco)

A further assay concerns KB-3.1. As to the kind of experiment: cells. As to the method: as §1, §2, §3, §4, §5, §6
The test system of a further assay is MCF-7. As to the kind of experiment: cells. As to the method: as §1, §2, §3, §4, §5, §6
The subject of the next assay is SK-OV-3. Description: cells. How it is done:
as §1, §2, §3, §4, §5, §6

Setting [1] is: Homo sapiens, A549, read-out: Antiproliferative activity IC50, A-549 human lung carcinoma.
Where [2] appears, read: Homo sapiens, KB 3-1, read-out: Antiproliferative activity IC50, KB-3.1 human cervix carcinoma.
Where [3] appears, read: Homo sapiens, MCF7, read-out: Antiproliferative activity IC50, MCF-7 human breast carcinoma.
[4] abbreviates: Homo sapiens, SK-OV-3, read-out: Antiproliferative activity IC50.
Setting [5] is: A-549 human lung carcinoma, read-out: Antiproliferative activity IC50.

Where two headings read alike, the source gives them in different places. Starred links: 1 amine or outer side, 2 acyl side, 3 side chain; linkers in the order of their positions; H or OH if unused. Non-standard residues stand in square brackets, D forms with d. Residues, ends and D or L forms follow the SMILES beside them. Groups on a side chain read outwards from the residue. *: point of attachment. X2 = C/C=C/[C@@H]1O[C@H]([C@@H](/C=C/C=C(\C)C[C@@H](C)/C=C(C)\C=C\[C@H]2CC=CC(=O)O2)N*)C[C@@H](O)[C@@H]1C; X1 = O=C([C@@H](CCCn1nnc2c1CCC1C(CC2)C1COC(=O)[*:3])N[*:1])[*:2]; PABC = O=C(OCc1ccc(N[*:1])cc1)[*:2]; Cit = NC(=O)NCCC[C@H](N)C(=O)O; pGlu = O=C1CC[C@@H](C(=O)O)N1; azaGly = NNC(=O)O

Take `C/C=C/[C@@H]1O[C@H]([C@@H](/C=C/C=C(\C)C[C@@H](C)/C=C(C)\C=C\[C@H]2CC=CC(=O)O2)NC(=O)OCCc2cn(-c3ccc(C(=O)NCCCC[C@H](NC(=O)CC[C@H](NC(=O)c4ccc(NCc5cnc6nc(N)[nH]c(=O)c6n5)cc4)C(=O)O)C(=O)N[C@@H](CCCCN)C(=O)O)cc3)nn2)C[C@@H](O)[C@@H]1C` [FA-8-L-16R-aminoratjadone]: the IC50 in the assay with KB-3.1 cancer cells (listed as FA-8-L-16R-Aminoratjadone) and in the assay with KB-3.1 cancer cells was 129 nM in each case.
Regarding `CC(C)C[C@H](NC(=O)[C@@H](CCCN=[N+]=[N-])NC(=O)[C@H](Cc1ccc(O)cc1)NC(=O)[C@H](CO)NC(=O)[C@H](Cc1c[nH]c2ccccc12)NC(=O)[C@H](Cc1c[nH]cn1)NC(=O)[C@@H]1CCC(=O)N1)C(=O)N[C@@H](CCCNC(=N)N)C(=O)N1CCC[C@H]1C(=O)NCC(N)=O` [D-Orn-N3-LHRH], the IC50 (in general, the concentration at which inhibition is half-maximal) is 318 nM with A-549, 1110 nM with KB-3.1, 47.4 nM in the assay with MCF-7 and 190 nM with SK-OV-3.
In the case of `C/C=C/[C@@H]1O[C@H]([C@@H](/C=C/C=C(\C)C[C@@H](C)/C=C(C)\C=C\[C@H]2CC=CC(=O)O2)NC(=O)OCc2ccc(NC(=O)[C@H](CCCNC(N)=O)NC(=O)[C@@H](NC(=O)OC[C@@H]3[C@@H]4CCc5nnn(CCC[C@H](NC(=O)CC[C@H](NC(=O)CC[C@H](NC(=O)c6ccc(NCc7cnc8nc(N)nc(O)c8n7)cc6)C(=O)O)C(=O)O)C(=O)O)c5CC[C@@H]43)C(C)C)cc2)C[C@@H](O)[C@@H]1C` [FA-7-Val-Cit-pABA-16R-aminoratjadone], the IC50 in the assay with KB-3.1 cancer cells was 34.3 nM.
`C#CCCC(=O)NCCSSCCC(=O)N[C@H](/C=C/C=C(\C)C[C@@H](C)/C=C(C)\C=C\[C@H]1CC=CC(=O)O1)[C@@H]1C[C@@H](O)[C@H](C)[C@H](/C=C/C)O1` [Compound 29, HCC(CH2)2(CO)-NH-(CH2)2SS(CH2)2(CO)-16R-Aminoratjadone]: the IC50 is 0.86 nM in the assay with A-549 (setting [1]), 1.86 nM in the assay with KB-3.1 (setting [2]), 0.17 nM with MCF-7 (setting [3]) and 1.09 nM with SK-OV-3 (setting [4]).
In the case of `C/C=C/[C@@H]1O[C@H]([C@@H](/C=C/C=C(\C)C[C@@H](C)/C=C(C)\C=C\[C@H]2CC=CC(=O)O2)NC(=O)OCc2ccc(NC(=O)[C@H](CCCNC(N)=O)NC(=O)[C@@H](NC(=O)OCC3C4CCc5nnn(CCC[C@@H](NC(=O)[C@H](Cc6ccc(O)cc6)NC(=O)[C@H](CO)NC(=O)[C@H](Cc6c[nH]c7ccccc67)NC(=O)[C@H](Cc6c[nH]cn6)NC(=O)[C@@H]6CCC(=O)N6)C(=O)N[C@@H](CC(C)C)C(=O)N[C@@H](CCCNC(=N)N)C(=O)N6CCC[C@H]6C(=O)NNC(N)=O)c5CCC43)C(C)C)cc2)C[C@@H](O)[C@@H]1C` (stereo partly drawn) ([pGlu]HWSY[X1]([Val-Cit-PABC-X2])LRP[azaGly]-NH2), the IC50 with A-549 (setting [5]) stood at 12.8 nM.
Turning to `C/C=C/[C@@H]1O[C@H]([C@@H](/C=C/C=C(\C)C[C@@H](C)/C=C(C)\C=C\[C@H]2CC=CC(=O)O2)NC(=O)OCc2ccc(NC(=O)[C@H](CCCNC(N)=O)NC(=O)[C@@H](NC(=O)OCC3C4CCc5nnn(CCC[C@H](NC(=O)[C@@H](CC(=O)O)NC(=O)[C@@H](CC(=O)O)NC(=O)[C@@H](CC(=O)O)NC(=O)CC[C@H](NC(=O)c6ccc(NCc7cnc8nc(N)nc(O)c8n7)cc6)C(=O)O)C(=O)N[C@H](CC(=O)O)C(=O)N[C@H](CC(=O)O)C(=O)N[C@H](CCCCN)C(=O)O)c5CCC43)C(C)C)cc2)C[C@@H](O)[C@@H]1C` (stereo partly drawn) [FA-10-Val-Cit-pABA-16R-aminoratjadone], in the assay on KB-3.1 cancer cells, the IC50 was 35.3 nM.
Consider `C#CCCOC(=O)NC1C[C@@H]([C@H](O)/C=C/C=C(\C)C[C@@H](C)/C=C(C)\C=C\[C@H]2CC=CC(=O)O2)O[C@@H](/C=C/C)[C@H]1C` (stereo partly shown) [Compound 34], for which the IC50 in the assay with A-549 (setting [1]) was found to be 5.22 nM; with KB-3.1 (setting [2]), 7.23 nM; in the assay on MCF-7 (setting [3]), 3.1 nM; in the assay on SK-OV-3 (setting [4]), 4.22 nM.
Regarding `C/C=C/[C@@H]1O[C@H]([C@@H](/C=C/C=C(\C)C[C@@H](C)/C=C(C)\C=C\[C@H]2CC=CC(=O)O2)NC(=O)OCc2ccc(NC(=O)[C@H](CCCNC(N)=O)NC(=O)[C@@H](NC(=O)OC[C@@H]3[C@@H]4CCc5nnn(-c6ccc(C(=O)NCCCC[C@H](NC(=O)CC[C@H](NC(=O)CC[C@H](NC(=O)c7ccc(NCc8cnc9nc(N)nc(O)c9n8)cc7)C(=O)O)C(=O)O)C(=O)O)cc6)c5CC[C@@H]43)C(C)C)cc2)C[C@@H](O)[C@@H]1C` [FA-6-Val-Cit-pABA-16R-aminoratjadone], the IC50 in the assay with KB-3.1 cancer cells (listed as FA-6-Val-Cit-pABA-16R-Aminoratjadone) and in the assay with KB-3.1 cancer cells was 223 nM in each case.
Regarding `C/C=C/[C@@H]1O[C@H]([C@@H](/C=C/C=C(\C)C[C@@H](C)/C=C(C)\C=C\[C@H]2CC=CC(=O)O2)NC(=O)OCc2ccc(NC(=O)[C@H](CCCNC(N)=O)NC(=O)[C@@H](NC(=O)OC[C@@H]3[C@@H]4CCc5nnn(CCC[C@H](NC(=O)CC[C@H](NC(=O)c6ccc(NCc7cnc8nc(N)nc(O)c8n7)cc6)C(=O)O)C(=O)N[C@H](CCCCN)C(=O)O)c5CC[C@@H]43)C(C)C)cc2)C[C@@H](O)[C@@H]1C` [FA-9-Val-Cit-pABA-16R-aminoratjadone], the IC50 in the assay with KB-3.1 cancer cells was 50.9 nM.
The same measure, in the same setting: under `C/C=C/[C@@H]1O[C@H]([C@@H](/C=C/C=C(\C)C[C@@H](C)/C=C(C)\C=C\[C@H]2CC=CC(=O)O2)NC(=O)OCc2ccc(NC(=O)[C@H](CCCNC(N)=O)NC(=O)[C@@H](NC(=O)OC[C@@H]3[C@@H]4CCc5nnn(-c6ccc(C(=O)NCCCC[C@H](NC(=O)CC[C@H](NC(=O)c7ccc(NCc8cnc9nc(N)nc(O)c9n8)cc7)C(=O)O)C(=O)N[C@H](CCCCN)C(=O)O)cc6)c5CC[C@@H]43)C(C)C)cc2)C[C@@H](O)[C@@H]1C` [FA-8-Val-Cit-pABA-16R-aminoratjadone] stands 39.9 nM.
For `C/C=C/[C@@H]1O[C@H]([C@@H](/C=C/C=C(\C)C[C@@H](C)/C=C(C)\C=C\[C@H]2CC=CC(=O)O2)NC(=O)OCc2ccc(NC(=O)[C@H](CCCNC(N)=O)NC(=O)[C@@H](NC(=O)OCCc3cn(CCC[C@H](NC(=O)[C@H](Cc4ccc(O)cc4)NC(=O)[C@H](CO)NC(=O)[C@H](Cc4c[nH]c5ccccc45)NC(=O)[C@H](Cc4c[nH]cn4)NC(=O)[C@@H]4CCC(=O)N4)C(=O)N[C@@H](CC(C)C)C(=O)N[C@@H](CCCNC(=N)N)C(=O)N4CCC[C@H]4C(=O)NCC(N)=O)nn3)C(C)C)cc2)C[C@@H](O)[C@@H]1C`, in the assay on A-549 (setting [5]), the 50% inhibitory concentration (IC50) came to 1200 nM.
`C/C=C/[C@@H]1O[C@H]([C@@H](/C=C/C=C(\C)C[C@@H](C)/C=C(C)\C=C\[C@H]2CC=CC(=O)O2)NC(=O)OCc2ccc(NC(=O)[C@H](CCCNC(N)=O)NC(=O)[C@@H](NC(=O)OCC3C4CCc5nnn(CCC[C@@H](NC(=O)[C@H](Cc6ccc(O)cc6)NC(=O)[C@H](CO)NC(=O)[C@H](Cc6c[nH]c7ccccc67)NC(=O)[C@H](Cc6c[nH]cn6)NC(=O)[C@@H]6CCC(=O)N6)C(=O)N[C@@H](CC(C)C)C(=O)N[C@@H](CCCNC(=N)N)C(=O)N6CCC[C@H]6C(=O)NCC(N)=O)c5CCC43)C(C)C)cc2)C[C@@H](O)[C@@H]1C` (stereo partly shown): the IC50 in the assay with A-549 (setting [5]) was 23 nM.
The same measure, in the same setting: under `C/C=C/[C@@H]1O[C@H]([C@@H](/C=C/C=C(\C)C[C@@H](C)/C=C(C)\C=C\[C@H]2CC=CC(=O)O2)NC(=O)OCCc2cn(CCC[C@H](NC(=O)[C@H](Cc3ccc(O)cc3)NC(=O)[C@H](CO)NC(=O)[C@H](Cc3c[nH]c4ccccc34)NC(=O)[C@H](Cc3c[nH]cn3)NC(=O)[C@@H]3CCC(=O)N3)C(=O)N[C@@H](CC(C)C)C(=O)N[C@@H](CCCNC(=N)N)C(=O)N3CCC[C@H]3C(=O)NCC(N)=O)nn2)C[C@@H](O)[C@@H]1C` [L-Orn-LHRH-16R-aminoratjadone] stands 1600 nM.
`C#CCCOC(=O)N[C@@H](C(=O)NC(CCCNC(N)=O)C(=O)Nc1ccc(COC(=O)N[C@H](/C=C/C=C(\C)C[C@@H](C)/C=C(C)\C=C\[C@H]2CC=CC(=O)O2)[C@@H]2C[C@@H](O)[C@H](C)[C@H](/C=C/C)O2)cc1)C(C)C` (stereo partly shown) [Compound 26]: the IC50 in the assay with A-549 (setting [5]) was determined as 25.1 nM; in the assay on A-549 (Homo sapiens, A549, A-549 human lung carcinoma, read-out: Antiproliferative activity IC50), 25.1 nM; in the assay with KB-3.1 (KB 3-1, KB-3.1 human cervix carcinoma, read-out: Antiproliferative activity IC50), 9.2 nM; with MCF-7 (Homo sapiens, MCF7, MCF-7 human breast carcinoma, read-out: Antiproliferative activity IC50), 12.5 nM; with MCF-7 (MCF-7 human breast carcinoma, read-out: Antiproliferative activity IC50), 12.5 nM; with SK-OV-3 (Homo sapiens, SK-OV-3, SK-OV-3 human ovarian carcinoma, read-out: Antiproliferative activity IC50), 13.6 nM. Moreover, the IC50 with SK-OV-3 (SK-OV-3 human ovarian carcinoma, read-out: Antiproliferative activity IC50) amounted to 13.6 nM.
